Experimental data published in PubChem BioAssay (NCI).
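Protocol summary: plate cells (96-well), add compound at 5 concentrations, incubate 48 h, interpolate endpoints linearly. Abbreviation: GI50, concentration required for 50% inhibition of growth. Definition used: TGI = concentration required for complete inhibition of growth.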

Key:
Assay in all cases: DTP human tumour cell line panel, 48 h; in the data active = GI50 below about 0.43 µM; inactive = the rest
[1] = test system: COLO 205 colon
[2] = test system: UACC-257 melanoma
[3] = test system: HCT-116 colon
[4] = test system: SK-MEL-2 melanoma
[5] = test system: OVCAR-4 ovarian
[6] = test system: EKVX NSCLC
[7] = test system: SW-620 colon
[8] = test system: MALME-3M melanoma
[9] = test system: M14 melanoma
[10] = test system: SF-539 CNS

CCCCN(CCCC)C(=O)/C(CC(=O)c1cccc2ccccc12)=N\NC(=O)c1cc2ccccc2cc1O
> 100 µM: TGI [7]
70.5 µM: TGI [5]
56.3 µM: TGI [1]
35.4 µM: TGI [8]
52.8 µM: TGI [2]
50.9 µM: TGI [6]
69.8 µM: TGI [9]
45.7 µM: TGI [4]
28 µM: TGI [3]

COc1ccc(CN2CCC/C=C/CC(Cl)(Cl)C2=O)cc1
> 100 µM: TGI [10] | TGI [3] | TGI [7]
57 µM: TGI [9]
98.8 µM: TGI [5]
41.2 µM: TGI [1]
87.7 µM: TGI [8]
44.8 µM: TGI [4]

CC(=O)/C(=C/c1ccccc1F)C(=O)c1ccccc1
56.1 µM: TGI [7]
> 100 µM: TGI [10] | TGI [1] | TGI [3] | TGI [5] | TGI [6] | TGI [9]
93.8 µM: TGI [4]
91.3 µM: TGI [2]

Oc1ccccc1-c1nn(CNc2ccccc2Cl)c(=S)o1
> 100 µM: TGI [1] | TGI [2] | TGI [3] | TGI [4] | TGI [6] | TGI [7] | TGI [9]
97.7 µM: TGI [10]
inactive: GI50 [10] 37.7 µM | GI50 [1] 27 µM | GI50 [2] > 100 µM | GI50 [3] 29.8 µM | GI50 [4] > 100 µM | GI50 [6] > 100 µM | GI50 [7] 41.9 µM | GI50 [9] > 100 µM

CC(=O)N1CCC2(c3ccccc3N(C(C)=O)C2c2ccc(O)cc2)C1C(=O)O (centres undefined)
> 100 µM: TGI [10] | TGI [1] | TGI [2] | TGI [3] | TGI [4] | TGI [6] | TGI [7] | TGI [8] | TGI [9]

C[C@H]1CCCC(O)C(O)[C@@H]2C[C@H](O[Si](C)(C)C(C)(C)C)C[C@H]2[C@H](O[Si](C)(C)C(C)(C)C)C(O)C(O)C(=O)O1 (some centres undefined)
> 100 µM: TGI [1] | TGI [2] | TGI [3] | TGI [4] | TGI [7] | TGI [9]
inactive: GI50 [10] 14.4 µM | GI50 [1] > 100 µM | GI50 [2] 35.2 µM | GI50 [3] 28.3 µM | GI50 [4] 34.8 µM | GI50 [6] 26.1 µM | GI50 [7] 94.7 µM | GI50 [8] 11.7 µM | GI50 [9] 39.1 µM
72.3 µM: TGI [6]
35.2 µM: TGI [8]
30.7 µM: TGI [10]

CCC(=O)Nc1nc2c(ncn2C2OC(COC(=O)CC)C(OC(=O)CC)C2OC(=O)CC)c(=O)[nH]1 (centres undefined)
> 100 µM: TGI [10] | TGI [2] | TGI [3] | TGI [4] | TGI [5] | TGI [6] | TGI [7] | TGI [8] | TGI [9]

Cc1ccc(NC(=O)c2cc(S(=O)(=O)N3C(=O)NC(=O)NS3(=O)=O)c(S)cc2Cl)cc1
68 µM: TGI [10]
85.3 µM: TGI [4]
96.7 µM: TGI [6]
> 100 µM: TGI [1] | TGI [3] | TGI [5] | TGI [7]
46.8 µM: TGI [2]
inactive: GI50 [10] 27.6 µM | GI50 [1] 39.8 µM | GI50 [2] 17.2 µM | GI50 [3] 30.3 µM | GI50 [4] 28.3 µM | GI50 [5] 47.6 µM | GI50 [6] 29.5 µM | GI50 [7] 31.6 µM | GI50 [9] 24.6 µM
66.8 µM: TGI [9]

C/C(=N\NC(=O)CC#N)c1c(O)cc(C)oc1=O
> 100 µM: TGI [10] | TGI [2] | TGI [3] | TGI [4] | TGI [5] | TGI [6] | TGI [7] | TGI [8] | TGI [9]

N/N=C1\C(=O)N(CCc2ccccc2)C(=O)C1C(=O)NCCc1ccccc1 (centres undefined)
> 100 µM: TGI [10] | TGI [2] | TGI [3] | TGI [4] | TGI [6] | TGI [7] | TGI [8] | TGI [9]

Cc1ccccc1NC(=O)C1C(=O)N(c2ccccc2C)C(=O)/C1=N\NC(N)=S (centres undefined)
> 100 µM: TGI [10] | TGI [2] | TGI [3] | TGI [4] | TGI [6] | TGI [7] | TGI [8] | TGI [9]

CCCCCCCCCCCCCCCC[N+]1(C)CCOCC1
4.07 µM: TGI [10]
6.71 µM: TGI [8]
3.87 µM: TGI [3]
10.4 µM: TGI [7]
17.2 µM: TGI [2]
20.1 µM: TGI [6]
2.42 µM: TGI [1]
2.98 µM: TGI [9]
inactive: GI50 [10] 1.87 µM | GI50 [1] 1.15 µM | GI50 [2] 4 µM | GI50 [3] 1.59 µM | GI50 [6] 3.42 µM | GI50 [7] 2.05 µM | GI50 [8] 2.38 µM | GI50 [9] 1.32 µM

C=CC(OCC)(OCC)OCC
43.6 µM: TGI [3]
> 100 µM: TGI [10] | TGI [1] | TGI [2] | TGI [4] | TGI [5] | TGI [6] | TGI [8] | TGI [9]

O=C(N[C@@H](C[Se][Se]C[C@H](NC(=O)c1ccc(Br)cc1F)C(=O)O)C(=O)O)c1ccc(Br)cc1F
inactive: GI50 [10] > 100 µM | GI50 [1] > 100 µM | GI50 [2] > 100 µM | GI50 [3] > 100 µM | GI50 [5] > 100 µM | GI50 [6] > 100 µM | GI50 [7] > 100 µM | GI50 [8] > 100 µM | GI50 [9] > 100 µM
> 100 µM: TGI [10] | TGI [1] | TGI [2] | TGI [3] | TGI [5] | TGI [6] | TGI [7] | TGI [8] | TGI [9]

C=C1C[C@@H]2CC[C@@]34C[C@H]5O[C@H]6[C@@H](O3)[C@H]3O[C@H](CC[C@@H]3O[C@H]6[C@@H]5O4)CC(=O)C[C@@H]3[C@@H](OC)[C@@H](C[C@H](O)CN)O[C@H]3C[C@H]3O[C@@H](CC[C@@H]1O2)C[C@@H](C)C3=C
0.0652 µM: TGI [1]
inactive: GI50 [2] > 65.8 µM | GI50 [5] 1.03 µM
0.0166 µM: TGI [10]
> 100 µM: TGI [2] | TGI [3] | TGI [4] | TGI [5] | TGI [6] | TGI [7]
> 81.9 µM: TGI [9]
active: GI50 [10] < 0.01 µM | GI50 [1] < 0.01 µM | GI50 [3] < 0.01 µM | GI50 [4] < 0.01 µM | GI50 [6] < 0.01 µM | GI50 [7] < 0.01 µM | GI50 [9] < 0.0106 µM

CCOC(=O)c1cc2c3c(c(O)c(OC)c2s1)N(C(=O)c1cc2c4c(c(O)c(OC)c2s1)N(C(C)=O)CC4)CC3
> 100 µM: TGI [10] | TGI [1] | TGI [2] | TGI [3] | TGI [5] | TGI [6] | TGI [7] | TGI [8] | TGI [9]

COC(=O)C1(C(=O)OC)CC(=O)c2cc3c(cc2-c2c(cc(OC)c(OC)c2OC)C1)OCO3
> 211 µM: TGI [10] | TGI [1] | TGI [2] | TGI [3] | TGI [4] | TGI [6] | TGI [7] | TGI [8]

Cn1c2c(c3ccccc31)CCN(CCN1CCN(c3cccc(Cl)c3)CC1)C2=O
> 100 µM: TGI [10] | TGI [1] | TGI [3] | TGI [6] | TGI [7] | TGI [9]

CCNC(=O)COc1ccc(Cl)cc1Cl
> 100 µM: TGI [10] | TGI [1] | TGI [2] | TGI [3] | TGI [4] | TGI [6] | TGI [7] | TGI [8] | TGI [9]
